In ChEMBL document CHEMBL3244184, “Synthesis of 5-azacytidine-6-13C and -6-14C” (J Med Chem, 1977):

Experiments:
[1] = Drug excretion in New Zealand white rabbit bile assessed as NSC-102816 equivalent excretion at 15 mg/kg, iv after 8 hrs by liquid scintillation counting; type: ADME, organism-based, Oryctolagus cuniculus; parameters: dose 15 mg/kg, route intravenous; conditions: in vivo
[2] = Drug excretion in New Zealand white rabbit urine assessed as NSC-102816 equivalent excretion at 15 mg/kg, iv after 8 hrs by liquid scintillation counting; type: ADME, organism-based, Oryctolagus cuniculus; parameters: dose 15 mg/kg, route intravenous; conditions: in vivo

Drug excretion [1] [%ID] | Drug excretion [2] [%ID] | Compound
0.88 | 2.53 | Nc1n[14cH]n([C@@H]2O[C@H](CO)[C@@H](O)[C@H]2O)c(=O)n1
1 | 35.3 | N[14c]1ncn([C@@H]2O[C@H](CO)[C@@H](O)[C@H]2O)c(=O)n1
